Measurements published in US8871772B2, “Therapeutic methods and compounds” (Ampio Pharmaceuticals, Inc., priority 2008, dated 2014).

Columns and labels:
Assay type in all cases: cell-based
[1] = system: AU565 breast cancer cell line; experiment: Proliferation of AU565 cancer cells, Promega cell titer assay; conditions: AU565, 20 μM, 96 hours; negative number = increase
Method: (§1) Assays were performed to determine the effect of Cpd. 5 (synthesis described in Example 1) on proliferation of two cancer cell lines. These two cell lines were STTG grade 4 astrocytoma cell line and AU565 breast cancer cell line. Both cell lines were obtained from American Type Culture Collection, Rockville, Md. (ATCC).
(§2) To perform the assays, a 50 mM stock solution of Cpd. 5 was prepared in DMSO and frozen at −80° C. Aliquots of the stock solution were removed and 100 μM dilutions were made in Iscove's modified Dulbecco's medium (IMDM; obtained from ATCC) supplemented with 10% fetal bovine serum (FBS) and penicillin/streptomycin solution. Controls containing equivalent amounts of DMSO to the 100 μM solution were mixed for comparative purposes. 100 μl of the resulting solutions were then added to 96 well culture plates in triplicate and placed in a 37° C. incubator with 5% CO2 to warm.
(§3) At this point, cells were removed from passage flasks using trypsin and counted using trypan blue to establish cell counts/ml and viability. For all experiments, viability of cells was greater than 95%. Solutions of 4,000 cells/100 μl were prepared in the medium from above and 100 μl of the solutions were added to each well of the plates. The plates were placed back in the incubator and incubated with the compounds for 96 hours.
(§4) Following incubation, cell proliferation was assayed by adding 20 μl Promega cell titer aqueous one reagent to each well. […] The plates were incubated at 37° C. for an additional 4-18 hours to allow the colorimetric assay to develop, and the OD of each well was determined in a microplate reader using a 530 nm filter. The OD of wells containing cell titer reagent in culture medium with no cells was subtracted from the OD of all experimental readings.
(§5) The % decrease of the total cell titer signal was determined using the following formula. […] The p values were calculated versus diluent controls.

[2] = system: STTG grade 4 astrocytoma cell line; experiment: Proliferation of STTG cancer cells, Promega cell titer assay; conditions: 20 μM, 96 hours, negative number = increase
Method: as §1, §2, §3, §4, §5

[3] = system: U-118 metastatic astrocytoma cell line; experiment: Proliferation of U-118 cancer cells, Promega cell titer assay
Method: Assays were performed to determine the effect of Cpd. 5 on proliferation of an additional cancer cell line. This cell line was the U-118 metastatic astrocytoma cell line. It was obtained from ATCC.
To perform the assays, a 50 mM stock solution of Cpd. 5 was prepared in DMSO and frozen at −80° C. […] Controls containing equivalent amounts of DMSO to the 300 μM solution were mixed for comparative purposes. 100 μl of the resulting solutions were then added to 96 well culture plates in triplicate and placed in a 37° C. incubator with 5% CO2 to warm.
as §3, with “Cells” for “At this point, cells”, “trypsin and ethylenediaminetetracetic acid (EDTA)” for “trypsin”, “above,” for “above”
Following incubation, cell proliferation was assayed by adding 20 μl Promega cell titer aqueous one reagent to each well. Promega cell titer reagent is a solution containing a tetrazolium dye that is reduced by living cells to a formazan dye, and this reduction is proportional to the number of living cells present in the well. The plates were incubated at 37° C. for an additional 4 hours to allow the colorimetric assay to develop, and the OD of each well was determined in a microplate reader using a 530 nm filter. The OD of wells containing cell titer reagent in culture medium with no cells was subtracted from the OD of all experimental readings.
The % decrease of the total cell titer signal was determined using the following formula. ((Diluent OD−Experimental OD)/Diluent OD))×100. Data are presented in Table 5 as mean % decrease of cell titer signal of three separate experiments, plus or minus standard deviation. In the mean % decrease column, a positive number means a decrease in cell titer signal, while a negative number means an increase in cell titer signal. The p values were calculated versus diluent controls.
The above experiment was repeated using the U-118 cells at 3000 cells/well.

O=c1cc(N2CCNCC2)oc2c(-c3ccccc3)cccc12 [LY303511, reference compound]
MEAN % DECREASE of cell titer signal [1]: −2.34%
MEAN % DECREASE of cell titer signal [2]: −4.74%
MEAN % DECREASE of cell titer signal ([3]; U-118, 3000 cells/well, 40 μM final): 0.41%
MEAN % DECREASE of cell titer signal ([3]; U-118, 4,000 cells/well, 20 μM final, 96 hours): −25.93%
